Test results taken from paper PMC5983544, “Muscarinic M5 receptors modulate ethanol seeking in rats” (Neuropsychopharmacology, 2018).

Legend:
rat M1 mAChR = biological target: T1, rat M1 mAChR (Rattus norvegicus, UniProt P08482); assay: [3H]NMS equilibrium binding in whole CHO-rM1 cells; details: rM1, [3H]NMS binding
T1 construct: host or cells: FlpIn CHO cells (Invitrogen)
T1 sequence (P08482 1-460): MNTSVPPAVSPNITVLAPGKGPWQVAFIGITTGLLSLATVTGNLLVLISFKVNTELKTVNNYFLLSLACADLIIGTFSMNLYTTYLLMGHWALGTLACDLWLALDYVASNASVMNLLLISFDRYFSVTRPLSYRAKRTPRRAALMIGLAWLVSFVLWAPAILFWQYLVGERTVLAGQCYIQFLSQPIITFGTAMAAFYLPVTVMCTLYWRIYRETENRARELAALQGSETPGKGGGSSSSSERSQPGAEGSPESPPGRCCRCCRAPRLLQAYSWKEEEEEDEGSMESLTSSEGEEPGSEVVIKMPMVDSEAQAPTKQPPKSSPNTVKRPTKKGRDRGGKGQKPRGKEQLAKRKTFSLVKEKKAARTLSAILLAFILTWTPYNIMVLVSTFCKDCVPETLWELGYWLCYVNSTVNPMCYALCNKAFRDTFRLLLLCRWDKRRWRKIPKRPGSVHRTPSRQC
Description: (§1) Rat mAChR subtypes (rM1–rM5; Origene) and human cannabinoid 1 receptor (hCB1; ref. [24]) constructs were isogenically integrated into FlpIn CHO cells (Invitrogen) and cells were selected in the presence of […] hygromycin B at 37 °C, 5% CO2, as previously described for the human M1 mAChR [25]. All cells were sub-cultured and seeded as previously described for the CHO-hM5 cells.
(§2) [^3H]NMS equilibrium binding assays in CHO-rM1 to CHO-rM5 cells were performed as previously described for CHO-hM5 cells. For [^35S]GTPγS binding, CHO-rM2 and CHO-rM4 cell membranes were prepared as described in Supplementary information. Membrane [^35S]GTPγS binding was performed as described in ref [26]., except GDP and [^35S]GTPγS concentrations were 1 μM and 0.3 nM, respectively. [^3H](+)-pentazocine binding was performed as described in ref. [27].

rat M4 mAChR = biological target: T2, rat M4 mAChR (Rattus norvegicus, UniProt P08485); assay: [3H]NMS equilibrium binding in whole CHO-rM4 cells; details: rM4, [3H]NMS binding
T2 construct: host or cells: FlpIn CHO cells (Invitrogen)
T2 sequence (P08485 1-478): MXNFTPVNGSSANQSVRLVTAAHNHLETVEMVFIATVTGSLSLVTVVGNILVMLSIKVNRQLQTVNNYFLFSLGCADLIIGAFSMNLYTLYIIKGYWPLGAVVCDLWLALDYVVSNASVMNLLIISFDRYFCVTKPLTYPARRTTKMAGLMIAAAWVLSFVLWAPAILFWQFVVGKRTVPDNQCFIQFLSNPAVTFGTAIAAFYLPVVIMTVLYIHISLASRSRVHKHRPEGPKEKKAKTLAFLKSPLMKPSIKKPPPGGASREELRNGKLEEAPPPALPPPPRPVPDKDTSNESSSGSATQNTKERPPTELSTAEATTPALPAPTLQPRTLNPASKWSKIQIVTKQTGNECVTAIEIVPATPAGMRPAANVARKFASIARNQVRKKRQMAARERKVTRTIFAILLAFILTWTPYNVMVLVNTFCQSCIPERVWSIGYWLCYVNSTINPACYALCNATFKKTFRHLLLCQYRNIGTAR
Description: as §1, §2

rat M5 mAChR = biological target: T3, rat M5 mAChR (Rattus norvegicus, UniProt P08911); assay: ACh-stimulated IP accumulation (IP-One) in CHO-rM5 cells; assay type: cell-based
T3 sequence (P08911 1-531): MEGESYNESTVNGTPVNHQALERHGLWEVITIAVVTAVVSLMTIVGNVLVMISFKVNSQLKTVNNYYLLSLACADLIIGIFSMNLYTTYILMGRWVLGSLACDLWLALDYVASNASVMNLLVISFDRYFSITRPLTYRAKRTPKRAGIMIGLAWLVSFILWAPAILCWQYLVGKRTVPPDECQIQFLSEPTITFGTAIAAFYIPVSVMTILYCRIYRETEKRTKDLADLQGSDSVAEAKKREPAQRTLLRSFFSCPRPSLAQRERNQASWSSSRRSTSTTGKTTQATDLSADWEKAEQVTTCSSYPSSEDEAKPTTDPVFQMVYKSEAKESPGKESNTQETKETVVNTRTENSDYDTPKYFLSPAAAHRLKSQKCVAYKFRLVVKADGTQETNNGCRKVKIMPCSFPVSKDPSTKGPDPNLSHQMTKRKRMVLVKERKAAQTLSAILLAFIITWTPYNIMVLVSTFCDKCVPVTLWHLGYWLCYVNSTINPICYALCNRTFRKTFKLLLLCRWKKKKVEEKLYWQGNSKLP
Description: (§3) The IP-One assay kit (Cisbio) was used for the direct quantitative measurement of inositol phosphate (IP) accumulation in CHO-rM1, CHO-rM3 or CHO-rM5 cells, as described previously. The CHO-hCB1 pERK1/2 assays were performed as described in ref [24].

rat M3 mAChR = biological target: T4, rat M3 mAChR (Rattus norvegicus, UniProt P08483); assay: ACh-stimulated IP accumulation (IP-One) in CHO-rM3 cells; assay type: cell-based; details: Fig. 2c
T4 construct: host or cells: FlpIn CHO cells (Invitrogen)
T4 sequence (P08483 whole entry): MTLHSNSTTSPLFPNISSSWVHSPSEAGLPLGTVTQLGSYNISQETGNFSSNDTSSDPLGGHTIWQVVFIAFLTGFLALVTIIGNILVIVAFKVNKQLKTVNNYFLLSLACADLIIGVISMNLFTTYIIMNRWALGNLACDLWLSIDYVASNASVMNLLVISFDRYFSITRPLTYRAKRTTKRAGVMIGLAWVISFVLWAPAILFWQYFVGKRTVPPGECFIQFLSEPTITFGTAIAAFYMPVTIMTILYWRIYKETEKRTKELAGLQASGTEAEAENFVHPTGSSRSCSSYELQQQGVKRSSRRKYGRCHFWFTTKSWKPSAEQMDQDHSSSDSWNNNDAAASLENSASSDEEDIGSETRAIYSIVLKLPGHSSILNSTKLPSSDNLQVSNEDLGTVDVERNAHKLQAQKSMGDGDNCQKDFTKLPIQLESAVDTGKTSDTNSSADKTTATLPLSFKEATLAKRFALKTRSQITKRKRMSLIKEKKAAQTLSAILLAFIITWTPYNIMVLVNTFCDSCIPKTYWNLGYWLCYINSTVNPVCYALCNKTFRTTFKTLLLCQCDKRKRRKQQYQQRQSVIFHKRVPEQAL
Description: as §3

σ1 receptor = biological target: T5, σ1 receptor (Mus musculus, UniProt O55242); assay: [3H](+)-pentazocine binding in mouse brain homogenates; details: ML375 at concentrations up to 10 μM
T5 construct: from tissue; host or cells: mouse brain homogenates
T5 sequence (O55242 whole entry): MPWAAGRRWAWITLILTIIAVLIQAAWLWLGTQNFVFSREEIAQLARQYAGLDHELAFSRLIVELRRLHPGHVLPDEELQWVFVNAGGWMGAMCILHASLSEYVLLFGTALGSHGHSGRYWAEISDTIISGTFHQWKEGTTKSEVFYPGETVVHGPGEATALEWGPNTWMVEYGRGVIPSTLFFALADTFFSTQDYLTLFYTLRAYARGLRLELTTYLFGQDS
Description: as §2
Sigma-1 data are expressed as a percentage of specific [^3H]-(+)-pentazocine binding; ERK1/2 phosphorylation data are expressed percentage of the response to 10% FBS. Data represent the mean ± S.E.M. of 5-7 independent experiments performed in duplicate or triplicate.

[1] = system: ethanol-preferring (iP) rats; assay: Operant ethanol self-administration, oral dosing; assay type: in vivo, rat
Source text: Male iP rats (n = 14) were trained to self-administer 10% (v/v) ethanol via lever presses under FR3 operant conditions for approximately 12 weeks, in the presence of a 1-s light conditioned stimulus (CS+) occurring when the ethanol solution was delivered and an olfactory cue (S+ cue; one drop of vanilla essence, placed directly below the ethanol-paired (active) lever), as previously described, followed by surgery and testing. […] Rats were then given 7 days of ethanol self-administration before receiving the alternate treatment in a counterbalanced manner. For full details refer to Supplementary material.

[2] = system: ethanol-preferring (iP) rats; assay: Operant sucrose self-administration, oral dosing; assay type: in vivo, rat; details: 30 mg/kg p.o. x3
Source text: A separate cohort of rats were trained to self-administer sucrose (0.05–1% w/v). Rats underwent an identical dosing regimen of vehicle or ML375 before testing.

hM5 mAChR = details: same assay; cited from earlier work

effect on ACh affinity (rat M1 mAChR): no significant effects | effect on ACh affinity (rat M4 mAChR): no significant effects | functional cooperativity between ML375 and ACh (rat M5 mAChR; rM5): high negative cooperativity | Kb (rat M5 mAChR; read-out: functional affinity pKB (converted)): 155 nM | activity on ACh function at rM3 (rat M3 mAChR): weak activity | effect on [3H](+)-pentazocine binding (σ1 receptor): no apparent effect | latency to first water response vs vehicle ([1]; 30 mg/kg p.o. at 3 h, 11 h and 27 h prior to testing, P = 0.037): extends the latency | latency to first ethanol reward vs vehicle ([1]; 30 mg/kg p.o., P = 0.73): no difference
Structure (SMILES): O=C(c1ccc(F)c(F)c1)N1CCN2C(=O)c3ccccc3[C@@]12c1ccc(Cl)cc1 [ML375, (S)-9b-(4-chlorophenyl)-1-(3,4-difluorobenzoyl)-2,3-dihydro-1H-imidazo[2,1-a]isoi ndol-5(9bH)-one]
ethanol responding vs vehicle ([1]; 30 mg/kg p.o. at 27 h, 11 h and 3 h prior to test, 10% ethanol, FR3, P = 0.0015): significantly reduced ethanol responding | responding for water vs vehicle ([1]; 30 mg/kg p.o. at 27 h, 11 h and 3 h prior to test, P = 0.98): no difference | sucrose responding vs vehicle ([2]; sucrose 0.05–1% w/v, P = 0.96): did not alter sucrose responding | water responding vs vehicle ([2]; sucrose-trained rats, P = 1.0): no difference | binding affinity pKB (hM5 mAChR): 6.87 | cooperativity with ACh binding, Log α (hM5 mAChR): −1.37
